According to patent US11241434B2, “Compositions and methods for improving cognition in a subject” (Yale University, priority 2013, dated 2022):

Legend:
[1] = system: Fyn (p-SFK) and eEF2 phosphorylation in cortical neurons; assay: Aβo-induced Fyn activation and eEF2 phosphorylation in cortical neurons (immunoblot); format: cell-based, mouse
Protocol: FIG. 2A: DIV21 cortical neurons from wild type or Prnp−/− mice were treated with or without Aβo for 5 min. Whole cell lysates were analyzed by anti-phospho-eEF2, anti-eEF2, or anti-PrP^C immunoblot. Aβo increased p-eEF2/eEF2 ratio to 210±20% of baseline in WT cultures (mean±sem, n=3), but there was no significant increase in Prnp−/− cultures. FIG. 2B: DIV21 cortical neurons from wild type mice were treated with the indicated human control or AD brain extracts (30 μg total protein/ml) for 5 min. Whole cell lysates were analyzed by anti-phospho-eEF2 or anti-eEF2 immunoblot. AD, but not control (Con), brain extracts increased p-eEF2/eEF2 ratio to 200±10% of untreated cultures (mean±sem, n=4). FIG. 2C: Wild type cortical neurons were treated with or without Aβo for 15 min. […] Whole cell lysates were analyzed by anti-phospho-SFK, anti-Fyn, anti-phospho-eEF2, or anti-eEF2 immunoblot. GAPDH served as a loading control. FIG. 2D: Quantification of phospho-eEF2 level normalized to eEF2 immunoreactivity from four independent experiments. Mean±sem; *, P<0.05, n.s., not significant; One-way ANOVA, with Tukey post-hoc pairwise comparisons.
Because spine turnover is dependent on protein translation machinery, and because both Aβo and Fyn have been linked to mGluR5, a downstream effector of mGluR5-regulated protein translation, the eukaryotic elongation factor 2 (eEF2), was considered. The eEF2 pathway is regulated by phosphorylation and is dysregulated in AD. A3o treatment of cortical neurons increases eEF2 phosphorylation at 5 min (FIG. 2A). Genetic analysis confirmed that the Aβo effect on eEF2 phosphorylation depends on PrP^C (FIG. 2A).
It was tested whether phosphorylation of eEF2 induced by Aβo depends on AZD0530-sensitive Fyn kinase activation. […] Thus, AZD0530 prevented Aβo/PrP-induced, Fyn-dependent neuronal signaling in vitro.

[2] = system: mice with closed head injury (CHI) and chronic variable stress (CVS); assay: Immunohistochemistry of cerebral cortex after head injury plus stress; format: in vivo, mouse; conditions: subacute TBI/Stress mice
Source text: FIGS. 16A-16F illustrate the finding that AZD0530 treatment prevents phospho-Tau accumulation after head injury plus stress. […] Boxed area is shown at higher magnification inset. Scale bar, m. FIG. 16B: PHF-1 IHC quantification using ImageJ software measuring total stained area, yielded significant differences amongst the three groups. Data are mean±SEM. n=5/group, each dot is one mouse. One way ANOVA: F(2,12)=9.967, p=0.0028, Tukey's multiple comparison test: SV vs IV: p=0.0077, IV vs IA: p=0.0046. […] Scale bar, 20 μm. […] Data are mean±SEM. n=5/group, each dot is one mouse. […] Scale bar, 20 μm. […] Data are mean±SEM. n=5/group, each dot is one mouse.
Immunohistochemistry was performed as previously described (Kaufman et al., 2015, Ann Neurol 77:953-971) with slight modifications. Forty m coronal sections of the right hemisphere were cut with a Leica VT1000S Vibratome. Antigen retrieval was performed on the forty m free-floating sections by incubating three slices from each mouse in 1× Reveal decloaker buffer (Biocare Medical) in 24-well-plates for 10 minutes at 90° C. in an oven and then cooled down at room temperature for 10 minutes. The antigen retrieval step was done for PHF1, AT8, and GFAP stainings. Sections were permeabilized with 0.1% Triton X-100 at room temperature for 5 minutes for PHF1 and SV2A staining and for 30 minutes for CD68/Ibal, AT8, and GFAP. All sections were blocked with 10% donkey, horse, or goat serum in PBS for one hour at room temperature. The sections were then incubated in primary antibody in 4% donkey, horse, or goat serum in PBS overnight at room temperature. For SV2A and PHF1 stainings, primary antibodies were incubated at 4° C. rather than room temperature. […]
For imaging and analysis of sections from the transgenic Tauopathy studies, Nikon Eclipse Ti Spinning Disc Confocal Microscope was used with a 40×1.3 NA oil-immersion lens in Cargille immersion oil. […] The dentate gyrus, CA1, and CA3 of mice were imaged and the percent positive area for each staining was analyzed with a macro in ImageJ or a pipeline in CellProfiler. […]

[3] = dog, 6 month study, cited from earlier work
[4] = Saracatinib drug levels in mouse brain, plasma and CSF (LC/MS/MS); format: in vivo; conditions: 5 mg/kg/d; for peak CSF level / trough CSF level: one pooled sample
Protocol: Data are mean±sem for separate mice for all points except CSF where samples pooled.
In an initial cohort after 6 doses, samples were collected 30-60 minutes after dosing to obtain a peak level (FIG. 6). Drug levels were measured with an LC/MS/MS method validated for clinical samples.

[5] = saracatinib 1 hour prior to Aβo, Aβo 15 min

With CN1CCN(CCOc2cc(OC3CCOCC3)c3c(Nc4c(Cl)ccc5c4OCO5)ncnc3c2)CC1 [saracatinib, N-(5-chloro-benzo[d][1,3]dioxol-4-yl)-7-(2-(4-methylpiperazin-1-yl)ethoxy)-5-(tetrahydro-2H-pyran-4-yloxy)quinazolin-4-amine] the “basal p-SFK levels” value ([1]; cortical neurons, saracatinib 1 hour) was “suppressed”, the “Aβo stimulation of target kinase (p-SFK)” value [1, 5] was “fully prevented” and the “Aβo-induced increase of eEF2 phosphorylation” value [1, 5] was “fully blocked”. For the same compound, the “PHF-1 immunoreactivity area in cerebral cortex” value ([2]; 0.5-1.0 mm medial to injury site) was “dramatically reduced”, the “GFAP IHC % area” value ([2]; three groups) was “did not result in groups differences” and the “total Tau IHC mean intensity” value ([2]; three groups) was “did not show significant differences”. The toxicity ([3]; 5 mg/kg/d) was “mild GI toxicity”, the NOAEL [3] was 0.5 mg/kg/day and the peak brain level [4] was 50 nM. For the same compound, the trough brain level ([4]; 5 mg/kg/day) was 19 to 46 nM, the peak brain level ([4]; as free base) was 27 ng/g and the “peak CSF level” value [4] was 13 nM. For the same compound, the “trough CSF level” value [4] was 8.9 nM, the “peak CSF level” value ([4]; as free base) was 7 ng/mL and the “trough CSF level” value ([4]; as free base) was 4.6 ng/mL.
